Data taken from BigSolDB 2.1.

O=C(O)c1ccccc1O
solubility (mole fraction)
Details	298.2 K	308.2 K	318.2 K	328.2 K	338.2 K
in acetone	0.137	0.139	0.156	0.196	–
in isopropanol	0.144	0.161	0.173	0.195	0.214
in n-propanol	0.132	0.15	0.163	0.179	0.195
in water	0.000295	0.000355	0.000507	0.000699	0.000944
